2 compounds from patent US20210228523A1, “MODULATORS OF SESTRIN-GATOR2 INTERACTION AND USES THEREOF” (Navitor Pharmaceuticals, Inc., priority 2017, published 2021) can be followed below.

The subject of this assay is mTORC1 signaling pathway. As to the kind of experiment: Western blot of mTORC1 substrates in crude synaptosomes from rat prefrontal cortex. Type of assay: in vivo. The note with it: Example B, 1 hr after administration. The protocol: Study Design. Forty-eight (48) male Sprague Dawley rats weighing between 175 and 200 g were randomized into 8 study groups (n=6/group), following a 5-day acclimation period. On study day 0, rats in Groups 3 and 7 received a single dose of Sal while Groups 4 and 8 received a single dose of Ket (10 mg/kg) each by i.p. injection. The rats in Groups 1 and 5 received a single dose of Veh while Groups 2 and 6 received a single dose of NV-5138 (160 mg/kg) each by oral gavage. One hour after dosing, rats in Groups 1-4 were sacrificed by conscious decapitation and followed by collection of the PFC. Crude synaptosomes were prepared from the PFC and three mTORC1 substrates, pmTOR, pp70S6K and p4E-BP1, and corresponding total protein loading controls (mTOR, p70S6K, and GAPDH) were quantitated by WB. Twenty-four hours after dosing, rats in Groups 5-8 were sacrificed by conscious decapitation and collection of the PFC. Crude synaptosomes were prepared from the PFC and the synaptic proteins (GluR1 and PSD95), as well as the total protein loading control (GAPDH), were quantitated by WB.
Formulation of Ket and NV-5138 for Administration. Ket (Sigma, cat #K1884) was dissolved in Sal at a concentration of 10 mg/mL. A volume of 1 mL/kg was injected i.p. NV-5138 (Navitor, Lot #06) was prepared by dissolving in Veh at a concentration of 50 mg/mL. The dosing volume based on the weight of the animal (3.2 mL/kg) was administered by oral gavage. Test articles were prepared the day of dosing.
Prefrontal Cortex Synaptosome Preparations. The brain was dissected from rats in all groups (n=6/group) and rinsed in PBS. The PFC was collected as shown in FIG. 6 and homogenized at 4° C. in homogenization buffer (0.32 M sucrose, 20 mM HEPES at pH 7.4, 1 mM EDTA, 5 mM NaF, 1 mM NaVO3 and protease inhibitor cocktail (Roche; Ser. No. 19/543,200)). The homogenate was centrifuged for 10 min at 2,800 rpm at 4° C. after which the supernatant was removed and re-centrifuged at 12,000 rpm for 10 min at 4° C. The resulting pellet containing crude synaptosomes was re-suspended in Lysis buffer (50 mM Tris-HCl (pH 7.5), 150 mM NaCl, 1% Triton X-100, 0.1% SDS, 2 mM, EDTA, 1 mM NaVO3, 5 mM NaF and protease inhibitor cocktail) and sonicated on ice for 20 s at 50% amplitude. The protein concentration was determined by Bradford assay and all samples were mixed with loading buffer (60 mM Tris-HCl pH 6.8, 20 mM DTT, 2% SDS, 10% glycerol, 5% β-mercaptoethanol and 0.01% Bromophenol blue) and stored at -20° C. until WB analysis.
Western Blot Analysis: Western blot analysis for GluR1, PSD95 and GAPDH was performed as previously described. Briefly, synaptosomes preparations (15 μg total protein) were loaded into 10-15% SDS PAGE gel for electrophoresis and transferred to a polyvinylidene difluoride (PVDF) membrane in transfer buffer (10× premixed electrophoresis buffer contains 25 mM Tris, 192 mM glycine, pH 8.3; Bio-Rad). […] After final three washes with PBS-T buffer, bands were detected using enhanced chemiluminescence. […]

For the compound `CNC1(c2ccccc2Cl)CCCCC1=O` (centres unmarked) [Ket, ketamine, reference compound], where the note is “Ket 10 mg/kg i.p.”, the “levels of p4E-BP1 in crude PFC synaptosomes” value is on record as “significantly increased” and the “levels of pmTOR in crude PFC synaptosomes” value is given as “significantly increased”.
Take `CC(C)(C[C@H](N)C(=O)O)C(F)F` [NV-5138]: for the setting “NV-5138 160 mg/kg oral”, the “levels of p4E-BP1 in crude PFC synaptosomes” value is given as “significantly increased”, the “levels of pmTOR in crude PFC synaptosomes” value was “significantly increased” and the “levels of pp70S6K in crude PFC synaptosomes” value is given as “significantly increased”.
